Reference: the supplement of paper PMC10307832

Experiments:
Experiment in all cases: relative viability (nuclei count vs DMSO), 5 days (fraction); higher = more cells survive
NVP-TAE684 + Bortezomib = compound: COc1cc(N2CCC(N3CCN(C)CC3)CC2)ccc1Nc1ncc(Cl)c(Nc2ccccc2S(=O)(=O)C(C)C)n1 [NVP-TAE684] + CC(C)C[C@H](NC(=O)[C@H](Cc1ccccc1)NC(=O)c1cnccn1)B(O)O [Bortezomib] (partner 0.002 µM)
In short: (§1)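 The day after seeding in 1536-well plates, lung cancer cell lines were treated by pin tool with a single drug, or with a fixed anchor-drug dose together with five library-drug doses (not always all listed) in √10 steps. After 5 days, a combined fix-and-stain solution (final 0.05% Triton X-100, 1% formaldehyde, 1 ug/ml Hoechst) was added. Nuclei counted on 4× images gave relative viability as treated counts over vehicle counts, reported as the median of duplicate plates.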

NVP-TAE684 + Lapatinib = compound: COc1cc(N2CCC(N3CCN(C)CC3)CC2)ccc1Nc1ncc(Cl)c(Nc2ccccc2S(=O)(=O)C(C)C)n1 [NVP-TAE684] + CS(=O)(=O)CCNCc1ccc(-c2ccc3ncnc(Nc4ccc(OCc5cccc(F)c5)c(Cl)c4)c3c2)o1 [Lapatinib] (partner 2 µM)
In short: as §1

CUDC-101 + Vorinostat = compound: C#Cc1cccc(Nc2ncnc3cc(OC)c(OCCCCCCC(=O)NO)cc23)c1 [CUDC-101] + O=C(CCCCCCC(=O)Nc1ccccc1)NO [Vorinostat] (partner 1 µM)
In short: as §1

NVP-TAE684 + Palbociclib = compound: COc1cc(N2CCC(N3CCN(C)CC3)CC2)ccc1Nc1ncc(Cl)c(Nc2ccccc2S(=O)(=O)C(C)C)n1 [NVP-TAE684] + CC(=O)c1c(C)c2cnc(Nc3ccc(N4CCNCC4)cn3)nc2n(C2CCCC2)c1=O [Palbociclib] (partner 0.5 µM)
In short: as §1

[1] = compound: C1=CC=C2C(=C1)N=C(S2)C(C#N)C3=NC(=NC=C3)NCCC4=CN=CC=C4 + Nc1ncn([C@H]2C[C@H](O)[C@@H](CO)O2)c(=O)n1 [Decitabine] (partner 2 µM)
In short: as §1

Cell Line	relative viability (NVP-TAE684 + Bortezomib; first compound 0.2 µM)	relative viability (NVP-TAE684 + Bortezomib; first compound 0.6325 µM)	relative viability (NVP-TAE684 + Bortezomib; first compound 2 µM)	relative viability (NVP-TAE684 + Lapatinib; first compound 0.2 µM)	relative viability (NVP-TAE684 + Lapatinib; first compound 0.6325 µM)	relative viability (NVP-TAE684 + Lapatinib; first compound 2 µM)	relative viability (CUDC-101 + Vorinostat; first compound 0.01 µM)	relative viability (CUDC-101 + Vorinostat; first compound 0.03162 µM)	relative viability (CUDC-101 + Vorinostat; first compound 0.1 µM)	relative viability (CUDC-101 + Vorinostat; first compound 0.3162 µM)	relative viability (CUDC-101 + Vorinostat; first compound 1 µM)	relative viability (NVP-TAE684 + Palbociclib; first compound 0.2 µM)	relative viability (NVP-TAE684 + Palbociclib; first compound 0.6325 µM)	relative viability (NVP-TAE684 + Palbociclib; first compound 2 µM)	relative viability ([1]; first compound 0.005 µM)	relative viability ([1]; first compound 0.01581 µM)	relative viability ([1]; first compound 0.05 µM)	relative viability ([1]; first compound 0.1581 µM)	relative viability ([1]; first compound 0.5 µM)
201T	1.11	1.01	1.11	1.09	1.05	0.928	1.02	0.954	0.937	0.982	0.842	0.358	0.333	0.312	0.772	0.91	0.868	0.833	0.911
A549				1.21		0.192									0.239	0.33	0.239	0.312	0.323
A-427	1.1		0.78	1.12		0.922	0.862	0.81	0.854	0.817	0.433	0.539	0.527	0.431	0.599	0.495	0.568	0.555	0.574
ABC-1	0.223	0.256	0.169	1.06	1.33	0.976	1.05	0.988	1.17	0.815	0.318	0.635	0.759	0.363	0.915		0.906	1.15	1.13
BEN	0.784	0.817	0.679	0.579	0.552	0.62	0.656	0.557	0.573	0.538	0.386	0.486	0.479	0.495	0.654	0.666	0.664	0.863	0.811
CAL-12T	0.974	0.645	0.366	0.666	0.471	0.305	0.761	0.803	0.919	0.828	0.487	0.357	0.344	0.186					
COR-L23		1.04	0.616	0.661	0.898	0.538	0.35	0.581	0.394	0.22	0.0997	0.307	0.209	0.152	0.439	0.45	0.415	0.472	0.424
COR-L 105	0.903	0.556	0.309	0.376	0.319	0.235	0.921	0.663	0.831	0.611	0.371	0.4	0.393	0.297	0.597	0.628	0.638	0.637	0.642
Calu-6	0.875	0.918	0.435	1.31	0.94														
ChaGo-K-1	1.18	0.691	0.952				0.756	0.727	0.79	0.698	0.578	1.04		0.7	0.488	0.53	0.518	0.542	0.511
EBC-1	0.515	0.544	0.341	0.221	0.223	0.192													
EKVX	0.98	0.926	0.587	0.199	0.189	0.155	0.658	0.658	0.623	0.617	0.363	0.358	0.351	0.34	0.152	0.286	0.309	0.329	0.23
EMC-BAC-2		1.01	0.734	0.856	0.805	0.586	0.506	0.449	0.507	0.309	0.191	0.483	0.499	0.357	0.872	0.984	0.916	1.04	0.91
EPLC-272H	1.23		0.66	0.813		0.955	0.345	0.38	0.464	0.229	0.118	0.324	0.321	0.27	0.501	0.337	0.36	0.385	0.309
H3255	0.766	0.618	0.746	0.279	0.18	0.167	0.824	0.786		1.07	0.368	0.324	0.299	0.296	0.574	0.561	0.561	0.639	0.726
HARA	1.31	1.1	1.05	1.09	0.626	0.232	0.505	0.678	0.577	0.478	0.22	0.297	0.234	0.164	0.7	0.574	0.634	0.538	0.584
HCC-15	0.916	1.07	1	0.914	0.893	0.808	0.828	0.802	0.77	0.716	0.448	0.63	0.7	0.587	0.568	0.608	0.644	0.66	0.564
HCC-44	1	0.863	0.83	1.23	1.03	0.979	1.04	1.2	1.13	1.02	1.11	1.01	0.986	0.867	0.956	0.933	0.971	0.978	1.01
HCC-78	0.428	0.381	0.307	1.26	1.3	0.255	0.441	0.413	0.46	0.377	0.259	0.487	0.388	0.479	0.776	0.779	0.634	0.825	0.747
